In data set [1] the target is T1, Bifunctional epoxide hydrolase 2 (Homo sapiens, UniProt P34913).
T1 sequence (P34913 whole entry): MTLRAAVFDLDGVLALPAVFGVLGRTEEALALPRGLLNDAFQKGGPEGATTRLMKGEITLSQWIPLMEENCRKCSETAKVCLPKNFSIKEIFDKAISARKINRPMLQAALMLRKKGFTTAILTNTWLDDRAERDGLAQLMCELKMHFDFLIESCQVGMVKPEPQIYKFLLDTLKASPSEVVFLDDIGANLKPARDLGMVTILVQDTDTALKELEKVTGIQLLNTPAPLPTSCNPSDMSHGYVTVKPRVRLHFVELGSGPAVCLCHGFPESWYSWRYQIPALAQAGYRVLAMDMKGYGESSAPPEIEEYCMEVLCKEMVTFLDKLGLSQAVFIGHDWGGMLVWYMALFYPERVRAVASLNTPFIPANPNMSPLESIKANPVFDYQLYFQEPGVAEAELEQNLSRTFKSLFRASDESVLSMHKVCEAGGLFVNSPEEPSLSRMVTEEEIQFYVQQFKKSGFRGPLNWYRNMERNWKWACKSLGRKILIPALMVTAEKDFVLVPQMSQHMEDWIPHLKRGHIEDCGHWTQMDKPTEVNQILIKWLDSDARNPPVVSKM
The data set is described as follows: Inhibition of human sEH using epoxy flour 7 as substrate measured after 30 mins by cell-based fluorescence assay.

Data set [2] has as its system Mus musculus. Briefly: Analgesic activity in albino mouse assessed as inhibition of acetic acid-induced writhing at 10 mg/kg, po administered 1 hr prior to acetic acid challenge and measured after 5 to 15 mins relative to celecoxib. Type of data set: functional. The following applies: time 60-75 min. Background: In writhing tests, fewer writhes than in controls are read as antinociception.

Data set [3] addresses Prostaglandin G/H synthase 1 (Homo sapiens, UniProt P23219). The data set is described as follows: Inhibition of recombinant human COX1 using arachidonic acid as substrate preincubated for 5 mins followed by substrate addition and measured after 2 mins by Ellman's reagent based enzyme immunoassay. Type of data set: ADME. In general terms: Ellman's reagent forms a yellow product with free thiols.

The target of data set [4] is T2, Prostaglandin G/H synthase 2 (Homo sapiens, UniProt P35354).
T2 sequence (P35354 whole entry): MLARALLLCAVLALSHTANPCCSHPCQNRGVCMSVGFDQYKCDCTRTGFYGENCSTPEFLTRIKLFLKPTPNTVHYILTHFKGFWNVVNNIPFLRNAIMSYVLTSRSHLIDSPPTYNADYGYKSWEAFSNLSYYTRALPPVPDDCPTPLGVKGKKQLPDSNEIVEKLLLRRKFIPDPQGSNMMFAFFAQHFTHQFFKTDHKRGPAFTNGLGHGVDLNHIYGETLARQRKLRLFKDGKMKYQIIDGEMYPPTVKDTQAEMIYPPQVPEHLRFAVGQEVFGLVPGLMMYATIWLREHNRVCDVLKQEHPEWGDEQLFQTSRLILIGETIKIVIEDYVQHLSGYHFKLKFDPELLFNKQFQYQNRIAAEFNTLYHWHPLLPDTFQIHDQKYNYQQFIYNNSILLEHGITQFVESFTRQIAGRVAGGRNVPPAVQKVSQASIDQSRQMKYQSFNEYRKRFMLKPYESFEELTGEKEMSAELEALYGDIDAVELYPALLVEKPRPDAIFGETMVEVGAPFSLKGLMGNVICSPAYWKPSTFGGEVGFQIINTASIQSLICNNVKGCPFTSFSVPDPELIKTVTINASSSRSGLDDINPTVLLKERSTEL
Briefly: Inhibition of recombinant human COX2 using arachidonic acid as substrate preincubated for 5 mins followed by substrate addition and measured after 2 mins by Ellman's reagent based enzyme immunoassay. Type of data set: ADME.

Data set [5] in a line: Selectivity index, ratio of IC50 for recombinant human COX1 to recombinant human COX2.
Data set [6] has as its system Mus musculus. Briefly: Analgesic activity in albino mouse assessed as inhibition of acetic acid-induced writhing at 10 mg/kg, po administered 1 hr prior to acetic acid challenge and measured after 5 to 15 mins relative to control. Type of data set: functional. The following applies: time 60-75 min.
Data set [7] deals with Rattus norvegicus. The data set is described as follows: Antiinflammatory activity in albino rat model of carrageenan-induced paw edema assessed as inhibition of paw edema at 50 mg/kg, po administered 1 hr prior to carrageenan challenge and measured after 1 hr by Vernier caliper method relative to control. In kind it is functional. The following applies: time 2 hrs.
Data set [8] deals with Rattus norvegicus. Briefly: Antiinflammatory activity in albino rat model of carrageenan-induced paw edema assessed as inhibition of paw edema at 50 mg/kg, po administered 1 hr prior to carrageenan challenge and measured after 3 hrs by Vernier caliper method relative to control. The following applies: time 4 hrs. Type of data set: functional. (In general: The carrageenan paw model is a standard test of acute inflammation.)

Data set [9] relates to Rattus norvegicus. Briefly: Antiinflammatory activity in albino rat model of carrageenan-induced paw edema assessed as inhibition of paw edema at 50 mg/kg, po administered 1 hr prior to carrageenan challenge and measured after 5 hrs by Vernier caliper method relative to control. Conditions: time 6 hrs. Type of data set: functional.
The subject of data set [10] is Rattus norvegicus. The data set is described as follows: Cardioprotective activity in celecoxib-induced cardiotoxicity in albino Wistar rat assessed as change in serum TNFalpha level at 100 mg/kg, po administered for 2 weeks and measured on day 15 by ELISA (reference value: 748.67 +/- 43.15 pg/ml). In kind it is functional. The following applies: time 15 day.
The subject of data set [11] is Rattus norvegicus. Briefly: Cardioprotective activity in celecoxib-induced cardiotoxicity in albino Wistar rat assessed as change in serum troponin-I level at 100 mg/kg, po administered for 2 weeks and measured on day 15 by ELISA (reference value: 340 +/- 11.56 pg/ml). Type of data set: functional. Conditions: time 15 day.
Data set [12] relates to Rattus norvegicus. Briefly: Cardioprotective activity in celecoxib-induced cardiotoxicity in albino Wistar rat assessed as change in serum LDH level at 100 mg/kg, po administered for 2 weeks and measured on day 15 by spectrophotometry (reference value: 2091.3 +/- 99.9 IU/L). In kind it is functional. The following applies: time 15 day.
Data set [13] relates to Rattus norvegicus. Briefly: Cardioprotective activity in celecoxib-induced cardiotoxicity in albino Wistar rat assessed as change in serum creatine kinase-MB level at 100 mg/kg, po administered for 2 weeks and measured on day 15 by spectrophotometry (reference value: 95.33 +/- 4 IU/L). In kind it is functional. The following applies: time 15 day.
Data set [14] deals with Rattus norvegicus. The data set is described as follows: Cardioprotective activity in celecoxib-induced cardiotoxicity in albino Wistar rat assessed as restoration of GSH level in cardiac tissue at 100 mg/kg, po administered for 2 weeks and measured on day 15. In kind it is functional, organism-based. Conditions: time 15.0 day.
Data set [15] is described as follows: Cardiotoxicity in albino Wistar rat assessed as change in serum PGI2 level at 100 mg/kg, po administered for 2 weeks and measured on day 15 by ELISA. Type of data set: toxicity, organism-based. The following applies: in vivo, 360 h, time 15 day.
The test system of data set [16] is Rattus norvegicus. Briefly: Cardioprotective activity in celecoxib-induced cardiotoxicity in albino Wistar rat assessed as restoration of serum PGI2 level at 100 mg/kg, po administered for 2 weeks and measured on day 15 by ELISA. In kind it is functional, organism-based. The following applies: time 15.0 day.
For data set [17], the system named is Rattus norvegicus. Briefly: Cardioprotective activity in celecoxib-induced cardiotoxicity in albino Wistar rat assessed as reduction in congestion in myocardium blood vessel at 100 mg/kg, po administered for 2 weeks and measured on day 15 by H and E staining based histopathological analysis. In kind it is functional, organism-based. Conditions: time 15.0 day.

For data set [18], the system named is Rattus norvegicus. The data set is described as follows: Cardioprotective activity in celecoxib-induced cardiotoxicity in albino Wistar rat assessed as reduction in congestion in coronary artery at 100 mg/kg, po administered for 2 weeks and measured on day 15 by H and E staining based histopathological analysis. Type of data set: functional, organism-based. Conditions: time 15.0 day.

The subject of data set [19] is Rattus norvegicus. Briefly: Cardioprotective activity in celecoxib-induced cardiotoxicity in albino Wistar rat assessed as reduction in edema in myocardium blood vessel at 100 mg/kg, po administered for 2 weeks and measured on day 15 by H and E staining based histopathological analysis. Type of data set: functional, organism-based. The following applies: time 15.0 day.

In data set [20] the test system is Rattus norvegicus. The data set is described as follows: Cardioprotective activity in celecoxib-induced cardiotoxicity in albino Wistar rat assessed as reduction in edema in coronary artery at 100 mg/kg, po administered for 2 weeks and measured on day 15 by H and E staining based histopathological analysis. In kind it is functional, organism-based. Conditions: time 15.0 day.

pIC50: −log10 of the molar value. The source made the active and inactive calls. The calls are words filed in the database; no cut-off is given here.

The results in this text go back to ChEMBL document CHEMBL4765415 (Eur J Med Chem, 2020).

Sequence of Prostaglandin G/H synthase 1 (P23219 whole entry): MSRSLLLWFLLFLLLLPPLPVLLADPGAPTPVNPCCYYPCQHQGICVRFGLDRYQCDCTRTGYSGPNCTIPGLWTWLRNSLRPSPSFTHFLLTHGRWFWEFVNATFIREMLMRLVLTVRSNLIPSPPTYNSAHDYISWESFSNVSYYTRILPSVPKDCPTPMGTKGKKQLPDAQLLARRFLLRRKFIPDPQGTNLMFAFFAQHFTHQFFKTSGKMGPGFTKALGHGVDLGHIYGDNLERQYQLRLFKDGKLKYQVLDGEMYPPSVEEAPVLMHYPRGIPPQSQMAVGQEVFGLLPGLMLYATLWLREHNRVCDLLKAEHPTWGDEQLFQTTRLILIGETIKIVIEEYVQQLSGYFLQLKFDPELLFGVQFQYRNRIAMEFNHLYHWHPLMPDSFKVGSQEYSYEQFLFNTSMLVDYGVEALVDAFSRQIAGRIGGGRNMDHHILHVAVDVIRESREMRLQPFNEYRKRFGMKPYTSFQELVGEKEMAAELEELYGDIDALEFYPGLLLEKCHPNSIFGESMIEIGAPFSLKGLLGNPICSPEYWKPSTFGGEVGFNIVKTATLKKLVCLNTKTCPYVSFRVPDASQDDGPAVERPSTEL

The term pIC50 denotes the IC50 on a negative log10 scale, so that one unit is a factor of ten. Take `NS(=O)(=O)c1ccc(-n2nc(NC(=O)NC3CCCCC3)cc2-c2ccccc2)cc1`: in data set [1], the pIC50 was 9.01.

`NS(=O)(=O)c1ccc(-n2nc(NC(=O)NCCCC(=O)O)cc2-c2ccccc2)cc1` showed a pIC50 in data set [1] of 8.40.

A word on the inhibition in vivo: it is how much of the control response was suppressed. `NS(=O)(=O)c1ccc(-n2nc(C(=O)NC34CC5CC(CC(C5)C3)C4)cc2-c2ccccc2)cc1`: in data set [2], the “fold change (FC)” value came to 4.66. Moreover, the results for the pIC50 in [3], in data set [4] and in [1] were 5.05, 5.67 and 8.94, respectively. In addition, the “Ratio IC50” value in data set [5] is 4.18. Moreover, the inhibition in vivo at 10 mg/kg in [6] stood at 62.7%. Besides, the inhibition in vivo at 50 mg/kg in data set [7] came to 42%; in [8] it was 76.5%; in [9], 84.2%.

In data set [1], `NS(=O)(=O)c1ccc(-n2nc(NC(=O)Nc3ccc(C(F)(F)F)cc3)cc2-c2ccccc2)cc1` gave a pIC50 of 9.40.

`NS(=O)(=O)c1ccc(-n2nc(C(=O)Nc3ccc(C(F)(F)F)cc3)cc2-c2ccccc2)cc1` showed a pIC50 in [1] of 8.92.

On to `NS(=O)(=O)c1ccc(-n2nc(C(=O)NCCCCCCCCCCC(=O)O)cc2-c2ccccc2)cc1`, for which the pIC50 in [1] is 8.48.

`CCOC(=O)C1CCN(C(=O)c2cc(-c3ccccc3)n(-c3ccc(S(N)(=O)=O)cc3)n2)CC1`: the pIC50 in [1] was 8.79.

As for `NS(=O)(=O)c1ccc(-n2nc(NC(=O)NC34CC5CC(CC(C5)C3)C4)cc2-c2ccccc2)cc1`, the “fold change (FC)” value in data set [2] is 1.83. The pIC50 was 4.93 in data set [3], 5.73 in data set [4] and 9.26 in data set [1]. Also, in data set [5], the “Ratio IC50” value is reported as 6.41. Moreover, in data set [6], the inhibition in vivo at 10 mg/kg was 24.6%. Moreover, the inhibition in vivo at 50 mg/kg came to 62.2% in data set [7], 92% in [8] and 93.8% in data set [9]. The Activity was 322 pg/mL in data set [10]; 150 pg/mL in data set [11]; 1585 IU/L in data set [12]; 22 IU/L in [13]; “Toxic” in [15]. Also, the outcome in [14], in data set [16], in data set [17], in data set [18], in data set [19] and in data set [20] was Active.

Compound `NS(=O)(=O)c1ccc(-n2nc(C(=O)NC3CCCCC3)cc2-c2ccccc2)cc1` had a pIC50 in data set [1] of 8.62.

For `CCOC(=O)C1CCN(C(=O)Nc2cc(-c3ccccc3)n(-c3ccc(S(N)(=O)=O)cc3)n2)CC1`, in data set [1], the pIC50 is 8.76.

For `NS(=O)(=O)c1ccc(-n2nc(NC(=O)NCCCCCCCCCCC(=O)O)cc2-c2ccccc2)cc1`, the pIC50 in data set [1] is 8.80.

Turning to `Cc1ccc(-c2cc(C(F)(F)F)nn2-c2ccc(S(N)(=O)=O)cc2)cc1` [CELECOXIB], the inhibition in vivo at 10 mg/kg in [6] was 13.4%. For the same compound, the inhibition in vivo at 50 mg/kg is 81.2% in data set [7], 82.7% in [8] and 88.3% in data set [9]. Besides, the Activity entry in data set [15] is listed as “Toxic”.

On to `NS(=O)(=O)c1ccc(-n2nc(C(=O)NCCCC(=O)O)cc2-c2ccccc2)cc1`, for which, in data set [1], the pIC50 is 8.74.
